Experimental data: patent US7057036B2, “Pyrrolothiazine and pyrrolothiazepine compounds having serotonin-2 receptor antagonistic and alpha-1-blocking action” (Daiichi Suntory Pharma Co., Ltd., priority 1997, dated 2006)

Legend:
serotonin-2 receptors = experiment: Anti-serotonin (5-HT) action: 5-HT-induced contraction of isolated superior mesenteric artery; details: contraction by 10^−5 M 5-HT taken as 100%, guinea pig superior mesenteric artery
Description: (1) Anti-Serotonin (5-HT) Action
A preparation cut in a helical form was suspended under resting-tension of 0.3 g in a Magnus cylinder filled with the Tyrode solution which had been aerated with a gas mixture of 95% O2 and 5% CO2 and maintained at 37° C. Using an isometric transducer (“UL-10”, manufactured by SHINKOH K. K.) and a pressure preamplifier (“DSA-605A”, manufactured by SHINKOH K. K.), variations in tension were measured. The isometric tensions were recorded on a pen-writing recorder (“VP-6537A”, manufactured by NATIONAL K. K.). Taking the contraction induced by 10^−5 M serotonin (5-HT) as 100%, the percent contractions by 10^−5 M 5-HT in the presence of each test drug at 10^−7 M and 10^−6 M were determined as anti-5-HT action.

α1 receptors = experiment: Anti-α1 action: norepinephrine-induced tonic contraction of isolated thoracic aorta; details: tonic contraction by 10^−5 M norepinephrine taken as 100%, guinea pig thoracic aorta
Description: The thoracic aorta of each Hartley male guinea pig (body weight: 300–500 g) was excised. A preparation cut in a helical form was suspended under 1 g load in a Magnus cylinder filled with the Tyrode solution which had been aerated with a gas mixture of 95% O2 and 5% CO2 and maintained at 37° C. Using an isometric transducer (“TB-612J”, manufactured by Nihon Kohden Corporation) and a pressure preamplifier (“AP-620G”, manufactured by Nihon Kohden Corporation), variations in tension were measured. The isometric tensions were recorded on a thermal pen-writing recorder (“WT-647G”, manufactured by Nihon Kohden Corporation). Taking the tonic contraction induced by 10^−5 M norepinephrine (NE) as 100%, the percent contractions upon addition of each test drug at 10^−8 M and 10^−7 M were determined and recorded as α1 action.

SMILES	Anti 5-HT action (% of Control) (serotonin-2 receptors; test drug 10^−6 M)	Anti 5-HT action (% of Control) (serotonin-2 receptors; test drug 10^−7 M)	Anti α1 action (% of Control) (α1 receptors; test drug 10^−7 M)	Anti α1 action (% of Control) (α1 receptors; test drug 10^−8 M)
Cn1ccc2c1C(=O)CCN(CCCN1CCC(C(=O)c3ccc(F)cc3)CC1)S2(=O)=O [Compound 22, 2-[3-[4-(4-fluorobenzoyl)piperidino]propyl]-6-methyl-3,4,5,6-tetrahydro-2H-pyrrolo[2,3-f][1,2]thiazepin-5-one 1,1-dioxide]	21.3 % of Control	75.3 % of Control	64.9 % of Control	91.2 % of Control
Cn1ccc2c1C(=NO)CN(CCCN1CCN(c3ccc(F)cc3)CC1)S2(=O)=O [Compound 25, 2-[3-[4-(4-fluorophenyl)piperazin-1-yl]propyl]-4-hydroxyimino-5-methyl-2,3,4,5-tetrahydropyrrolo[2,3-e][1,2]thiazine 1,1-dioxide]	19.6 % of Control	69.8 % of Control	24.1 % of Control	65.3 % of Control
Cn1ccc2c1C(=NO)CN(CCCN1CCC(C(=O)c3ccc(F)cc3)CC1)S2(=O)=O [Compound 26, 2-[3-[4-(4-fluorobenzoyl)piperidino]propyl]-4-hydroxyimino-5-methyl-2,3,4,5-tetrahydropyrrolo[2,3-e][1,2]thiazine 1,1-dioxide]	18.2 % of Control	54.6 % of Control	73.1 % of Control	99.6 % of Control
Cn1ccc2c1C(=NO)CCN(CCCN1CCN(c3ccc(F)cc3)CC1)S2(=O)=O [Compound 27, 2-[3-[4-(4-fluorophenyl)piperazin-1-yl]propyl]-5-hydroxyimino-6-methyl-3,4,5,6-tetrahydro-2H-pyrrolo[2,3-f][1,2]thiazepine 1,1-dioxide]	22.7 % of Control	76.2 % of Control	53.0 % of Control	91.2 % of Control
Cn1ccc2c1C(O)CCN(CCCN1CCN(c3ccc(F)cc3)CC1)S2(=O)=O (centres unmarked) [Compound 30, 2-[3-[4-(4-fluorophenyl)piperazin-1-yl]propyl]-5-hydroxy-6-methyl-3,4,5,6-tetrahydro-2H-pyrrolo[2,3-f][1,2]thiazepine 1,1-dioxide]	37.2 % of Control	83.5 % of Control	88.0 % of Control	102.3 % of Control
